Assay results as given in paper PMC7846792, “Perception of a divergent family of phytocytokines by the Arabidopsis receptor kinase MIK2” (Nature Communications, 2021).
No end group written: not given here.

Target: T1, MIK2 ectodomain (MIK2ECD, residues 1–709) (Arabidopsis thaliana, UniProt Q8VZG8)
T1 construct: Arabidopsis thaliana MIK2 (residues 1–709); StrepII-9xHis (TEV-cleavable) (C, cleaved yes); made in house; host or cells: Trichoplusia ni Tnao38 insect cells (baculovirus, modified pFastBac)
T1 sequence (Q8VZG8 44-709): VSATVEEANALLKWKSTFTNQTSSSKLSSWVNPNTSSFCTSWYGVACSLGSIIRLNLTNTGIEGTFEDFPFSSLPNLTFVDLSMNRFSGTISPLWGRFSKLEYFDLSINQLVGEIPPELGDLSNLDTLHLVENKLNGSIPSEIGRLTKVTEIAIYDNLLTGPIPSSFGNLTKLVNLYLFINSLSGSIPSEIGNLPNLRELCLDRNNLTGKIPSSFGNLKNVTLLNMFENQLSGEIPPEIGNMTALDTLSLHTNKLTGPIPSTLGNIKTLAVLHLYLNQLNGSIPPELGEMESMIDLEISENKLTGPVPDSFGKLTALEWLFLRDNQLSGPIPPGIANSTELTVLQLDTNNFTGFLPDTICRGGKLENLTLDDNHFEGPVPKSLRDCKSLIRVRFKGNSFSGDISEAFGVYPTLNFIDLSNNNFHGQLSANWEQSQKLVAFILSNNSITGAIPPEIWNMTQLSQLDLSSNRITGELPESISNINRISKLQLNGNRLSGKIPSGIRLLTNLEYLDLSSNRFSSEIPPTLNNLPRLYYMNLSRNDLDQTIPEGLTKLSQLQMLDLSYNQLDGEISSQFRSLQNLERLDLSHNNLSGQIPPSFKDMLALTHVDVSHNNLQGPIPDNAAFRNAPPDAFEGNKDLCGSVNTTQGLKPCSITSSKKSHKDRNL
Experiment: ITC, MIK2 vs SCOOP12
Format: binding
Source text: ITC data were corrected for the heat of dilution by subtracting the mixing enthalpies for titrant solution injections into protein-free ITC buffer. […] The N values were fitted to 1 in the analysis.

PVRSSQSSQAGGR [SCOOP12]
Kd: 4.56 ± 0.299 µM
